# pEC50: −log10 of the molar value. Entries after “also recorded” stand apart in the source; their conditions may differ. Read-outs that look alike come from different tables or passages of the source.
# Assays:
# ELIC [1] = target: T1, ELIC (Dickeya chrysanthemi, UniProt P0C7B7); assay: cell-based; assay type: cell-based, Erwinia chrysanthemi
# T1 construct: expressed in transfected cells; host or cells: Xenopus laevis oocytes (cRNA injection, pTLN vector)
# From the text: To identify ligands that activate ELIC we have expressed the protein in Xenopus laevis oocytes and investigated the response to potential agonists by the two-electrode voltage-clamp technique. Based on the volume and chemical properties of the proposed ligand binding region and the presence of positively charged ions bound to this site, we reasoned that parts of the agonists might have a cationic character. […] Our library included different natural products such as amino acids and their derivatives, metabolites, and related synthetic substances (Figure S3A).
# Constructs containing the gene of either the WT channel or point mutants preceded by the signal sequence of the chicken α7nAchR were cloned into the pTLN vector for expression in X. laevis oocytes. After linearization of the plasmid DNA by MluI, capped complementary RNA was transcribed with the mMessage mMachine kit (Ambion) and purified with the RNeasy kit (Qiagen). For expression, 1–50 ng of RNA was injected into defolliculated oocytes. Two-electrode voltage clamp measurements were performed one day after injection at 20°C (OC-725B, Warner Instrument Corp.). […] Cysteamine containing solutions were supplemented with 1 mM DTT.
# [2] = target: T2, ELIC Tyr174 mutated to alanine (Dickeya chrysanthemi, UniProt P0C7B7, Y174A); assay: Two-electrode voltage clamp of ELIC Tyr174 alanine mutant; assay type: cell-based, Erwinia chrysanthemi
# T2 construct: expressed in transfected cells; host or cells: Xenopus laevis oocytes (cRNA injection, pTLN vector)
# T2 sequence (P0C7B7 whole entry Y174A): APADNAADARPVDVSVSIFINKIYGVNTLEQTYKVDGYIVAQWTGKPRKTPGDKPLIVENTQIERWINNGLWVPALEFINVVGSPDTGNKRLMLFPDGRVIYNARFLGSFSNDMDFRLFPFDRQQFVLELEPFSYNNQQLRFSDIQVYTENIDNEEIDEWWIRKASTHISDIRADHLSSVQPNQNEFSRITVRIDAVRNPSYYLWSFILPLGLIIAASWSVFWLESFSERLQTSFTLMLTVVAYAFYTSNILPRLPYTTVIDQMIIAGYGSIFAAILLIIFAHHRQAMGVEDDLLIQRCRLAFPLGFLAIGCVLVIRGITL
# From the text: (§1) To investigate the role of residues surrounding the bound ligand for channel activation, we have mutated single residues to alanine and we have measured activation with the two-electrode voltage-clamp technique (Table 2). For many mutants there was no response to the addition of cysteamine. This was the case for all investigated residues of the principal site, such as Glu77 and Glu131, that may interact with the primary amino group and hydrophobic and aromatic residues (i.e., Phe187, Phe133, Tyr174, Ile79) that surround the aliphatic carbon atoms of the ligand. The effect of mutations on the complementary side, in contrast, was diverse and in some cases less drastic. The mutations of Phe19 on β-1 and Val40 on β-2 shifted the activation towards higher agonist concentrations (Figure 4B).
# (§2) Constructs containing the gene of either the WT channel or point mutants preceded by the signal sequence of the chicken α7nAchR were cloned into the pTLN vector for expression in X. laevis oocytes. After linearization of the plasmid DNA by MluI, capped complementary RNA was transcribed with the mMessage mMachine kit (Ambion) and purified with the RNeasy kit (Qiagen). For expression, 1–50 ng of RNA was injected into defolliculated oocytes. […] Currents were recorded in bath solutions containing 10 mM HEPES (pH 7), 130 mM NaCl, and the respective ligands. […]
# [3] = target: T3, ELIC Ile79 mutated to alanine (Dickeya chrysanthemi, UniProt P0C7B7, I79A); assay: Two-electrode voltage clamp of ELIC Ile79 alanine mutant; assay type: cell-based, Erwinia chrysanthemi
# T3 construct: expressed in transfected cells; host or cells: Xenopus laevis oocytes (cRNA injection, pTLN vector)
# T3 sequence (P0C7B7 whole entry I79A): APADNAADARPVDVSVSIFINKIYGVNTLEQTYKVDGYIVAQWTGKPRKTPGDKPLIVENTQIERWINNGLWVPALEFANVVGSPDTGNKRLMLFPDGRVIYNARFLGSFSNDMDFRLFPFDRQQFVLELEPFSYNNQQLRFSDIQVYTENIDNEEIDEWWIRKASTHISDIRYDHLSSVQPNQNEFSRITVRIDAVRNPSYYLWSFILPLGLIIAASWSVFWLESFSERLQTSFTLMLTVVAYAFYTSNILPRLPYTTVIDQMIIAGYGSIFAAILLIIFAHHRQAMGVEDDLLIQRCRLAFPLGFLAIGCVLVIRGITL
# From the text: as §1, §2
# [4] = target: T4, ELIC Phe133 mutated to alanine (Dickeya chrysanthemi, UniProt P0C7B7, F133A); assay: Two-electrode voltage clamp of ELIC Phe133 alanine mutant; assay type: cell-based, Erwinia chrysanthemi
# T4 construct: expressed in transfected cells; host or cells: Xenopus laevis oocytes (cRNA injection, pTLN vector)
# T4 sequence (P0C7B7 whole entry F133A): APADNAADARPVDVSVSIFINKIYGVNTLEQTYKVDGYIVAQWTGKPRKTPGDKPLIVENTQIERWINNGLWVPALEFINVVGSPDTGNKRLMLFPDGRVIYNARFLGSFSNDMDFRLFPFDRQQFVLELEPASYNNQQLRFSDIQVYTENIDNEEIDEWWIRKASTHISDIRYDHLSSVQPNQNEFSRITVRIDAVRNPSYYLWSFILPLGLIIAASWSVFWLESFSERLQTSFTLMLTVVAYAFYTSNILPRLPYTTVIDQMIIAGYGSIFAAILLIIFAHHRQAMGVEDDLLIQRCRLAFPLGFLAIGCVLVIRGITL
# From the text: as §1, §2
# [5] = target: T5, ELIC Asn103 mutated to alanine (Dickeya chrysanthemi, UniProt P0C7B7, N103A); assay: Two-electrode voltage clamp of ELIC Asn103 alanine mutant; assay type: cell-based, Erwinia chrysanthemi
# T5 construct: expressed in transfected cells; host or cells: Xenopus laevis oocytes (cRNA injection, pTLN vector)
# T5 sequence (P0C7B7 whole entry N103A): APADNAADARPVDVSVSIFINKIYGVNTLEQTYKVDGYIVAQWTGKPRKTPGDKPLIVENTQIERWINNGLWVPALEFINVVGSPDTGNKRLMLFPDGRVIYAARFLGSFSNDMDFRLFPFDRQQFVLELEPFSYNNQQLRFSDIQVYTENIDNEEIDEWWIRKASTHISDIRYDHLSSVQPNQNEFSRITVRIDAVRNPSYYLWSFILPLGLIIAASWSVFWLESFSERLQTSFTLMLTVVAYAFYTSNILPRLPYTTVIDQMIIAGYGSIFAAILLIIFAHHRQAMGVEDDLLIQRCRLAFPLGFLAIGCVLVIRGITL
# From the text: as §1, §2
# ELIC F246A = target: T6, ELIC F246A (Dickeya chrysanthemi, UniProt P0C7B7, F246A); assay: Two-electrode voltage clamp of ELIC pore mutant F246A in oocytes; assay type: cell-based, Erwinia chrysanthemi
# T6 construct: expressed in transfected cells; host or cells: Xenopus laevis oocytes (cRNA injection, pTLN vector)
# T6 sequence (P0C7B7 whole entry F246A): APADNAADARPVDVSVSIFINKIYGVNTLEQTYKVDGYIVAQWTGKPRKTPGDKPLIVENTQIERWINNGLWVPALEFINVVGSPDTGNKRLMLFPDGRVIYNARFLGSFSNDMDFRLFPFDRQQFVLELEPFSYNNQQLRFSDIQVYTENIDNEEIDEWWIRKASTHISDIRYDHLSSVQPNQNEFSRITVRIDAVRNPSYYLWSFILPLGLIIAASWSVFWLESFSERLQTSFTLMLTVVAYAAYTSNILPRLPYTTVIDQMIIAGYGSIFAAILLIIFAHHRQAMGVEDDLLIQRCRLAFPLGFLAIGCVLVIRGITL
# From the text: In contrast to the extracellular domain, the pore of ELIC resembles cation selective members of the family that include nAChRs, serotonin receptors, and the prokaryotic channel GLIC (Figure S1G). In cation selective pLGICs, three layers of hydrophobic side-chains provide an overall apolar character to the extracellular half of the pore region while the following two layers of polar residues and a layer of negatively charged residues render the intracellular half hydrophilic,[30]. […] To investigate the role of this aromatic group for channel opening, we have mutated it to alanine and studied the mutant by X-ray crystallography and electrophysiology. […] This shift is due to a mutation of a residue located remote from the ligand binding site and thus likely reflects a decreased efficacy of the channel.
# as §2
# [6] = Protonation of the sulfhydryl group of cysteamine; assay type: physicochemical; conditions: at the pH of the recording solution
# [7] = target: T7, ELIC Glu131 mutated to alanine (Dickeya chrysanthemi, UniProt P0C7B7, E131A); assay: Two-electrode voltage clamp of ELIC Glu131 alanine mutant; assay type: cell-based, Erwinia chrysanthemi
# T7 construct: expressed in transfected cells; host or cells: Xenopus laevis oocytes (cRNA injection, pTLN vector)
# T7 sequence (P0C7B7 whole entry E131A): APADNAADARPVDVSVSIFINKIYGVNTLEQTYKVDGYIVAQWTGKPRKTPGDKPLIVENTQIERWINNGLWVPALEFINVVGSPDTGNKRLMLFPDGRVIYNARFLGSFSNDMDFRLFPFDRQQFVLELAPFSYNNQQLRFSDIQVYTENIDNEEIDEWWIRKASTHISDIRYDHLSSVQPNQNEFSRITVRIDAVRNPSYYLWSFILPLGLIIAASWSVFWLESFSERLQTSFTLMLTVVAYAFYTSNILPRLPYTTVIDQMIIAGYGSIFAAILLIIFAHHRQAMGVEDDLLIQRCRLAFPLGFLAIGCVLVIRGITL
# From the text: as §1, §2
# ELIC R91A = target: T8, ELIC R91A (Dickeya chrysanthemi, UniProt P0C7B7, R91A); assay: Two-electrode voltage clamp of ELIC point mutant R91A in oocytes; assay type: cell-based, Erwinia chrysanthemi
# T8 construct: expressed in transfected cells; host or cells: Xenopus laevis oocytes (cRNA injection, pTLN vector)
# T8 sequence (P0C7B7 whole entry R91A): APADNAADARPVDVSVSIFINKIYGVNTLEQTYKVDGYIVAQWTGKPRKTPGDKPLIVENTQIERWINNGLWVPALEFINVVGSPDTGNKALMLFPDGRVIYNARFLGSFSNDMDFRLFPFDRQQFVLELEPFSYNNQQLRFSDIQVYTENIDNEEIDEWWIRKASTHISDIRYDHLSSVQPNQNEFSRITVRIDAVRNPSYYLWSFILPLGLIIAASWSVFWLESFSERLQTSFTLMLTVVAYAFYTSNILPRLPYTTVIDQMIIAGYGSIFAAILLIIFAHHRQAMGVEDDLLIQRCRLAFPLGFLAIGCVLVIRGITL
# From the text: as §1
# (§3) Constructs containing the gene of either the WT channel or point mutants preceded by the signal sequence of the chicken α7nAchR were cloned into the pTLN vector for expression in X. laevis oocytes. After linearization of the plasmid DNA by MluI, capped complementary RNA was transcribed with the mMessage mMachine kit (Ambion) and purified with the RNeasy kit (Qiagen). For expression, 1–50 ng of RNA was injected into defolliculated oocytes. Two-electrode voltage clamp measurements were performed one day after injection at 20°C (OC-725B, Warner Instrument Corp.). Currents were recorded in bath solutions containing 10 mM HEPES (pH 7), 130 mM NaCl, and the respective ligands. Cysteamine containing solutions were supplemented with 1 mM DTT.
# ELIC F19A = target: T9, ELIC F19A (Dickeya chrysanthemi, UniProt P0C7B7, F19A); assay: Two-electrode voltage clamp of ELIC point mutant F19A in oocytes; assay type: cell-based, Erwinia chrysanthemi; conditions: read-out: EC50 of activation
# T9 construct: expressed in transfected cells; host or cells: Xenopus laevis oocytes (cRNA injection, pTLN vector)
# T9 sequence (P0C7B7 whole entry F19A): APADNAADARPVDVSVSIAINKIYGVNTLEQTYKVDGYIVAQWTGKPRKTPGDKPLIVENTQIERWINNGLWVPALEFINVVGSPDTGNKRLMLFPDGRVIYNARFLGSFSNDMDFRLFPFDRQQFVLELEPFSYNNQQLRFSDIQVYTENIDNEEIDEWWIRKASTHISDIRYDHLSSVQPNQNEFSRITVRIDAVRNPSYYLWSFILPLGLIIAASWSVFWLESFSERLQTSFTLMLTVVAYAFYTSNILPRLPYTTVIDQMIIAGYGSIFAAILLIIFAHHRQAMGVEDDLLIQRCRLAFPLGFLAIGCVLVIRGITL
# From the text: as §1, §2
# [8] = target: T10, ELIC Glu77 mutated to alanine (Dickeya chrysanthemi, UniProt P0C7B7, E77A); assay: Two-electrode voltage clamp of ELIC Glu77 alanine mutant; assay type: cell-based, Erwinia chrysanthemi
# T10 construct: expressed in transfected cells; host or cells: Xenopus laevis oocytes (cRNA injection, pTLN vector)
# T10 sequence (P0C7B7 whole entry E77A): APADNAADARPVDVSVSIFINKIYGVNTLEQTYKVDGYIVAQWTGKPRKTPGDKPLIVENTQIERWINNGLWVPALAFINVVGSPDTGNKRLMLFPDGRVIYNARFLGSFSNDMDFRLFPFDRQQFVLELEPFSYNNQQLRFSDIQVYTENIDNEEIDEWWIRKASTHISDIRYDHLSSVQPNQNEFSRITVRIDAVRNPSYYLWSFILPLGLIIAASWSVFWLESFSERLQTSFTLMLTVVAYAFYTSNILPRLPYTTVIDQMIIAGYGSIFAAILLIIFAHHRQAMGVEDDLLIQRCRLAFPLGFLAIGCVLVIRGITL
# From the text: as §1, §2
# [9] = target: T11, ELIC Phe187 mutated to alanine (Dickeya chrysanthemi, UniProt P0C7B7, F187A); assay: Two-electrode voltage clamp of ELIC Phe187 alanine mutant; assay type: cell-based, Erwinia chrysanthemi
# T11 construct: expressed in transfected cells; host or cells: Xenopus laevis oocytes (cRNA injection, pTLN vector)
# T11 sequence (P0C7B7 whole entry F187A): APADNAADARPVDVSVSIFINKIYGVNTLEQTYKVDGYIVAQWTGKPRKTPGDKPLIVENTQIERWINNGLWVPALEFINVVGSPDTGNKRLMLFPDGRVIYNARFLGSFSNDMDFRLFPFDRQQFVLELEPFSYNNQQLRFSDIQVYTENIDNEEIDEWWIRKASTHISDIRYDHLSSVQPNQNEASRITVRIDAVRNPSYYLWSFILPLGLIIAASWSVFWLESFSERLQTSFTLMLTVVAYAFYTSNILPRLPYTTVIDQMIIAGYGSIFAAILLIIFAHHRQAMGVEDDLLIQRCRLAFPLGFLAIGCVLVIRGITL
# From the text: as §1, §2
# ELIC V40A = target: T12, ELIC V40A (Dickeya chrysanthemi, UniProt P0C7B7, V40A); assay: Two-electrode voltage clamp of ELIC point mutant V40A in oocytes; assay type: cell-based, Erwinia chrysanthemi
# T12 construct: expressed in transfected cells; host or cells: Xenopus laevis oocytes (cRNA injection, pTLN vector)
# T12 sequence (P0C7B7 whole entry V40A): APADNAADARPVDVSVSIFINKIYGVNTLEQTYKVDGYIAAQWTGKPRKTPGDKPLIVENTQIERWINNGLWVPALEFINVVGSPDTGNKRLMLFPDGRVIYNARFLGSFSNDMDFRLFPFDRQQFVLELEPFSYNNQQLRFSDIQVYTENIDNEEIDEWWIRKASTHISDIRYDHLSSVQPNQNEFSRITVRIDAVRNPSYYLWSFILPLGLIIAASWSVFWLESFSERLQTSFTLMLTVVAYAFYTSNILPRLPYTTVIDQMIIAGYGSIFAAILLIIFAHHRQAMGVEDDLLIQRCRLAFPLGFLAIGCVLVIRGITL
# From the text: as §1, §3
# ELIC [10] = target: T1, ELIC; assay: Patch clamp of excised outside-out patches, fast solution exchange (activation and deactivation kinetics); assay type: cell-based, Erwinia chrysanthemi; conditions: -60 mV, n = 19, errors s.d., upper limit
# Protocol: We have thus used this molecule as an agonist in most subsequent experiments. […] Stable currents over a period of seconds were obtained upon addition of high micromolar concentrations of cysteamine to the extracellular medium (Figure 3A). At longer incubations with the ligand, however, the currents decayed, which is indicative for a slow desensitization of the channel (Figure S4A). […] To follow the time-course of activation and deactivation, we have investigated excised outside-out patches in response to fast solution exchange. A similar phenotype of currents as previously seen in two-electrode voltage clamp recordings, although with faster kinetics of desensitization, was also observed for macroscopic currents in a patch clamp experiment (Figure 3B, Figure S4B). At 5 mM cysteamine, channel activation and deactivation can be approximated by exponential functions with time constants in the ms range (τact = 20±5 ms, n = 19, τdeact = 53±7 ms, n = 19, all errors are s.d.). […]
# Membrane patches of X. laevis oocytes were recorded in the excised outside-out configuration 2–3 d after injection of mRNA with an Axopatch 200B amplifier (Axon Instruments) at 20°C. Data were sampled at 100 µs, filtered with 1,000 Hz, and analyzed using Clampfit (Axon Instruments, Inc.). […]
# [11] = WT, pH 7.0, two-electrode voltage clamp, -60 mV, fit to Hill equation, read-out: EC50 of activation of ELIC
# [12] = ligand added to the extracellular solution, 10 mM, -60 mV, compared with 2 mM cysteamine
# [13] = pH 7.0, averages and s.d. of six measurements
# T1 sequence (P0C7B7 whole entry): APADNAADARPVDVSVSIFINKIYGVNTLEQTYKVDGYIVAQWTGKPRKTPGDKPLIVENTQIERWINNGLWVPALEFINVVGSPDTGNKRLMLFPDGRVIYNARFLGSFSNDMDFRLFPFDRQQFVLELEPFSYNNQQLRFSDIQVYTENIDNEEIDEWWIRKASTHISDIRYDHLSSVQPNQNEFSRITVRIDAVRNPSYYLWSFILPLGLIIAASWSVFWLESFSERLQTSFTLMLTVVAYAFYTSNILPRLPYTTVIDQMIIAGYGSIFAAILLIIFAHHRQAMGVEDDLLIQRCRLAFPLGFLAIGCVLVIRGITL
compound,measurement,setting,value
NCCCCN [putrescine],pEC50,ELIC [1],1.80
same,activating current response of ELIC to the ligand,ELIC [1],activate ELIC; also recorded: only observed at higher pH
same,n (Hill coefficient),ELIC [1]; pH 8,2.4
same,"n (Hill coefficient), concentration of monovalent putrescine",ELIC [1]; pH 8,2.4
same,Imax/Imax cysteamine,ELIC [1]; pH 9,1.03±0.07
NCCS [cysteamine],response to the addition of the ligand,[2],no response
same,response to the addition of the ligand,[3],no response
same,response to the addition of the ligand,[4],no response
same,response to the addition of the ligand,[5],did not show an activating response
same,n (Hill coefficient),"ELIC [1]; WT, pH 7.0",2.7
same,pEC50,ELIC [1]; [11],3.44
same,pEC50,"ELIC [1]; WT, voltage-independent activation, read-out: EC50 of activation of ELIC",3.44
same,activating current response of ELIC to the ligand,ELIC [1]; [12],most efficacious; also recorded: strongest response at low ligand concentration
same,Imax/Imax cysteamine,ELIC [1]; [13],1
same,n (Hill coefficient),ELIC F246A,3.0
same,pEC50,ELIC F246A; read-out: EC50 of activation,2.59
same,sulfhydryl groups protonated,[6],> 96%
same,response to the addition of the ligand,[7],no response
same,n (Hill coefficient),ELIC R91A; mutant R91A,2.6
same,fold decrease of the EC50,ELIC R91A; mutant R91A compared with WT,4 fold
same,pEC50,"ELIC R91A; mutant R91A, read-out: EC50 of activation",4.06
same,pEC50,ELIC F19A,< 2.00
same,response to the addition of the ligand,[8],no response
same,response to the addition of the ligand,[9],no response
same,n (Hill coefficient),ELIC V40A,2.6
same,pEC50,ELIC V40A; read-out: EC50 of activation,2.72
same,"τact, time constant of channel activation",ELIC [10]; 5 mM cysteamine,20 ± 5 ms
same,"τdeact, time constant of channel deactivation",ELIC [10]; washout of 5 mM cysteamine,53 ± 7 ms
NCCCCO,n (Hill coefficient),"ELIC [1]; WT, pH 7.0",2.9
same,pEC50,ELIC [1]; [11],2.77
same,activating current response of ELIC to the ligand,ELIC [1]; [12],strong activation
same,Imax/Imax cysteamine,ELIC [1]; [13],0.98±0.03
CC(=O)OCC[N+](C)(C)C [acetylcholine],activating current response of ELIC to the ligand,ELIC [1]; [12],ineffective
NCCCBr [bromopropylamine],n (Hill coefficient),"ELIC [1]; WT, pH 7.0",3.9
same,pEC50,ELIC [1]; [11],2.96
same,activating current response of ELIC to the ligand,ELIC [1]; [12],opening the channel
same,Imax/Imax cysteamine,ELIC [1]; [13],0.71±0.03
NCCC(=O)O [beta-alanine],activating current response of ELIC to the ligand,ELIC [1],absent
CCCN [aminopropane],n (Hill coefficient),"ELIC [1]; WT, pH 7.0",3.0
same,pEC50,ELIC [1]; [11],3.35
same,activating current response of ELIC to the ligand,ELIC [1]; [12],activate the channel
same,Imax/Imax cysteamine,ELIC [1]; [13],0.99±0.02
NCCCC(=O)O [GABA],n (Hill coefficient),"ELIC [1]; WT, pH 7.0",3.9
same,pEC50,ELIC [1]; [11],2.62
same,activating current response of ELIC to the ligand,ELIC [1]; [12],activating response at low mM concentrations
same,Imax/Imax cysteamine,ELIC [1]; [13],0.79±0.09
diaminopropane,n (Hill coefficient),"ELIC [1]; WT, pH 8.0",3.1
same,pEC50,"ELIC [1]; WT, pH 8.0, two-electrode voltage clamp, -60 mV, read-out: EC50 of activation of ELIC",2.52
same,Imax/Imax cysteamine,"ELIC [1]; pH 9.0, averages and s.d. of six measurements",1.08±0.03
